Test results from PMC7701510, “Identification of HN252 as a potent inhibitor of protein phosphatase PPM1B” (Journal of Cellular and Molecular Medicine, 2020).

Assays:
[1] = biological target: T1, PPM1F (Homo sapiens, UniProt P49593); test: pNPP hydrolysis phosphatase assay (selectivity panel); format: biochemical; settings: pNPP as substrate
T1 sequence (P49593 1-454): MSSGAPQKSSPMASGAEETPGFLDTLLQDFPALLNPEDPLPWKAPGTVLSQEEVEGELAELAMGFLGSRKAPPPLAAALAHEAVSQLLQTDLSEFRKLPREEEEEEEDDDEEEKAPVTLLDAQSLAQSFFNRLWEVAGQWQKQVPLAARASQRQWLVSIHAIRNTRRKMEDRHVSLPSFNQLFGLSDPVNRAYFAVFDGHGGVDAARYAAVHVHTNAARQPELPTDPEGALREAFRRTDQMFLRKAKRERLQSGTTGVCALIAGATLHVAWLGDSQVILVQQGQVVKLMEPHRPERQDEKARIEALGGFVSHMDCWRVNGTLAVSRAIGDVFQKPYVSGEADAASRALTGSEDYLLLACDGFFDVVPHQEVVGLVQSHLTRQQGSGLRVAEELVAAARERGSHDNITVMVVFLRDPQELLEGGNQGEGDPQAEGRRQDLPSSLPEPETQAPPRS

[2] = biological target: T2, LYP (Homo sapiens, UniProt Q9Y2R2); test: as above; format: biochemical; settings: pNPP as substrate
T2 sequence (Q9Y2R2 1-807): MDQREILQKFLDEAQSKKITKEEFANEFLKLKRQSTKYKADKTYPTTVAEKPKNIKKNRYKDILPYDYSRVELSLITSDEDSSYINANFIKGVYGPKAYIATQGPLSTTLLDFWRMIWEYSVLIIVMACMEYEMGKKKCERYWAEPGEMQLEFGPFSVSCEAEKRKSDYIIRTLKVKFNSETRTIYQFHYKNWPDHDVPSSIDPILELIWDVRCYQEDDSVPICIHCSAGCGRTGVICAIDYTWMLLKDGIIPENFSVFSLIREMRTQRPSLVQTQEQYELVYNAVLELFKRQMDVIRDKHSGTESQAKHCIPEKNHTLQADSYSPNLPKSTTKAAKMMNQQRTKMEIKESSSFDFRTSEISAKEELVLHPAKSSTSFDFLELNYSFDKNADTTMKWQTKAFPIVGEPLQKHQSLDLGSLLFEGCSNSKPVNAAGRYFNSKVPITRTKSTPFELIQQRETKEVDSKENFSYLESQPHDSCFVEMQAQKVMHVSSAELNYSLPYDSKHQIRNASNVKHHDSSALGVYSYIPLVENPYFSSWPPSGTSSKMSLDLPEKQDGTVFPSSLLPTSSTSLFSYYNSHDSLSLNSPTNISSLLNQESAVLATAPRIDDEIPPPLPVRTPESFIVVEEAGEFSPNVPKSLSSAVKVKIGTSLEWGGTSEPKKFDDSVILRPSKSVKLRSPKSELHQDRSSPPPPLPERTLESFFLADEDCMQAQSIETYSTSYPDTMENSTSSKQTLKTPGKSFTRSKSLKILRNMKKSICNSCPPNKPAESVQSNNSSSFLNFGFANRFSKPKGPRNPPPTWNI

[3] = biological target: T3, SSH2 (Homo sapiens, UniProt Q76I76); test: as above; format: biochemical; settings: pNPP as substrate
T3 sequence (Q76I76 1-1423): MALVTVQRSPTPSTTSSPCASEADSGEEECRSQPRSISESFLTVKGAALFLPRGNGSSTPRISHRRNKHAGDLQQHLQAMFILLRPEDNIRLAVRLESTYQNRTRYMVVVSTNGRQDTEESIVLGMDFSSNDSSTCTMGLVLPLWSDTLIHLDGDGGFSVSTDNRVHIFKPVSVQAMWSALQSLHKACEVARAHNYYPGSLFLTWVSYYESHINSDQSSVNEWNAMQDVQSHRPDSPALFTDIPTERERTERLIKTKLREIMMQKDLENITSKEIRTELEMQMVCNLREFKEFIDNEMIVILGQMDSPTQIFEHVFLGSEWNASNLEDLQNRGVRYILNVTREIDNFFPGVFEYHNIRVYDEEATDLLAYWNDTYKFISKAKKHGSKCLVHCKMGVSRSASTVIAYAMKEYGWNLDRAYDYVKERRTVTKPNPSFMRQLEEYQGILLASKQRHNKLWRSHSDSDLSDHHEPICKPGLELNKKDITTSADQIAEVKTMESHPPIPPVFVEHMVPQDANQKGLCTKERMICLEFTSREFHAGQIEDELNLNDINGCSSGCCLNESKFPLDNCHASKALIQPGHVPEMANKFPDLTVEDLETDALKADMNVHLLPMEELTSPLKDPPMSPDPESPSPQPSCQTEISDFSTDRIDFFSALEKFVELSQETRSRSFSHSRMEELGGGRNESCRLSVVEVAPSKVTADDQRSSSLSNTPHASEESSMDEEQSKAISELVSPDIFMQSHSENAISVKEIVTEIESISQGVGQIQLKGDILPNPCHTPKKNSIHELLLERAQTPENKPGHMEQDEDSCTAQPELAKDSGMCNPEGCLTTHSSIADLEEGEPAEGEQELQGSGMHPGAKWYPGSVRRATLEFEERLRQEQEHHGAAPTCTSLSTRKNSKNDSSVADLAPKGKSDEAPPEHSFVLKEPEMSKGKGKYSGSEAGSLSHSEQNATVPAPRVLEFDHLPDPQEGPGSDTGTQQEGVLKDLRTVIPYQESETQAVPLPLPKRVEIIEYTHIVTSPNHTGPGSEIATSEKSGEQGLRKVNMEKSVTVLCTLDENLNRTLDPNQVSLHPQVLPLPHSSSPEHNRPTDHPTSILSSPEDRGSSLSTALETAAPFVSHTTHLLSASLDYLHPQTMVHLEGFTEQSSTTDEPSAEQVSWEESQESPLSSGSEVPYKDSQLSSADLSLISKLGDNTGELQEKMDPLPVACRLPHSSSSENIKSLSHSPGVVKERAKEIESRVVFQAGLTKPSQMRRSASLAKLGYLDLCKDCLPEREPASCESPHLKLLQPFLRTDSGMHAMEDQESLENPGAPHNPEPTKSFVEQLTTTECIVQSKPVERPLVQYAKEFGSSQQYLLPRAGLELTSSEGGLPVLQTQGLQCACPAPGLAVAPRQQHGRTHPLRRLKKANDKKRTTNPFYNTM

[4] = Cytotoxicity; format: cell-based; settings: low micromolar range; data not shown

With `Nc1cc(-c2ccc(-c3ccc(O)c(O)c3)cc2)ccc1C(=O)O` [HN252] as the molecule, how does the IC50 [1] read?
Its IC50 is 30.6 ± 4.05 µM.

And the IC50 [2]?
The IC50 was 98.2 ± 11.7 µM.

What about the IC50 [3] of the same molecule?
Its IC50 is 55.1 ± 2.88 µM.

What about the cytotoxicity [4] of the same molecule?
The cytotoxicity was “no detectable cytotoxicity”.
